# From patent publication US9469650B2, “Melampomagnolide B derivatives” (BOARD OF TRUSTEES OF THE UNIVERSITY OF ARKANSAS, priority 2013, dated 2016)
# Where two headings read alike, the source gives them in different places.
# Key:
# PC-3 = experiment: panel of 60 human tumor cell lines, growth inhibition (Prostate Cancer); conditions: PC-3
# A498 = experiment: panel of 60 human tumor cell lines, growth inhibition (Renal Cancer); conditions: A498
# HS 578T = experiment: panel of 60 human tumor cell lines, growth inhibition (Breast Cancer)
# DU-145 = experiment: panel of 60 human tumor cell lines, growth inhibition (Prostate Cancer); conditions: DU-145
# UACC-257 = experiment: panel of 60 human tumor cell lines, growth inhibition (Melanoma); conditions: UACC-257
# HOP-92 = experiment: panel of 60 human tumor cell lines, growth inhibition (Non-Small Cell Lung Cancer); conditions: HOP-92
# OVCAR-3 = experiment: panel of 60 human tumor cell lines, growth inhibition (Ovarian Cancer); conditions: OVCAR-3
# NCI-H460 = experiment: panel of 60 human tumor cell lines, growth inhibition (Non-Small Cell Lung Cancer); conditions: NCI-H460
# MDA-MB-468 = experiment: panel of 60 human tumor cell lines, growth inhibition (Breast Cancer); conditions: MDA-MB-468
# HOP-62 = experiment: panel of 60 human tumor cell lines, growth inhibition (Non-Small Cell Lung Cancer); conditions: HOP-62
# SK-MEL-5 = experiment: panel of 60 human tumor cell lines, growth inhibition (Melanoma); conditions: 8K-MEL-5
# NCI-H226 = experiment: panel of 60 human tumor cell lines, growth inhibition (Non-Small Cell Lung Cancer); conditions: NCI-H226
# MOLT-4 = experiment: panel of 60 human tumor cell lines, growth inhibition (Leukemia); conditions: MOLT-4
# 786-0 = experiment: panel of 60 human tumor cell lines, growth inhibition (Renal Cancer); conditions: 786-0
# K-562 = experiment: panel of 60 human tumor cell lines, growth inhibition (Leukemia); conditions: K-562
# T-47D = experiment: panel of 60 human tumor cell lines, growth inhibition (Breast Cancer); conditions: T-47D
# U251 = experiment: panel of 60 human tumor cell lines, growth inhibition (CNS Cancer); conditions: U251
compound,measurement,setting,value
C=C1C(=O)O[C@H]2[C@H]1CC/C(COC(=O)NCCN1CCCCC1)=C\CC[C@@]1(C)O[C@@H]21 [JVM 2-13],GI50,PC-3,15.7 µM
same,TGI,PC-3,33.3 µM
same,Percent Growth,PC-3; Log10 Concentration −4.0,−73%
same,Percent Growth,PC-3; Log10 Concentration −5.0,80%
same,Percent Growth,PC-3; Log10 Concentration −6.0,94%
same,Percent Growth,PC-3; Log10 Concentration −7.0,96%
same,Percent Growth,PC-3; Log10 Concentration −8.0,97%
same,GI50,A498,11.8 µM
same,TGI,A498,25 µM
same,Percent Growth,A498; Log10 Concentration −4.0,−92%
same,Percent Growth,A498; Log10 Concentration −5.0,61%
same,Percent Growth,A498; Log10 Concentration −6.0,71%
same,Percent Growth,A498; Log10 Concentration −7.0,65%
same,Percent Growth,A498; Log10 Concentration −8.0,73%
same,GI50,HS 578T,18.4 µM
same,TGI,HS 578T; HS 57BT,66 µM
same,Percent Growth,"HS 578T; HS 57BT, Log10 Concentration −4.0",−16%
same,Percent Growth,"HS 578T; HS 57BT, Log10 Concentration −5.0",74%
same,Percent Growth,"HS 578T; HS 57BT, Log10 Concentration −6.0",89%
same,Percent Growth,"HS 578T; HS 57BT, Log10 Concentration −7.0",87%
same,Percent Growth,"HS 578T; HS 57BT, Log10 Concentration −8.0",92%
same,GI50,DU-145,4.89 µM
same,TGI,DU-145,16.6 µM
same,Percent Growth,DU-145; Log10 Concentration −4.0,−97%
same,Percent Growth,DU-145; Log10 Concentration −5.0,27%
same,Percent Growth,DU-145; Log10 Concentration −6.0,101%
same,Percent Growth,DU-145; Log10 Concentration −7.0,108%
same,Percent Growth,DU-145; Log10 Concentration −8.0,110%
same,GI50,UACC-257,4.99 µM
same,TGI,UACC-257,19.2 µM
same,Percent Growth,UACC-257; Log10 Concentration −4.0,−86%
same,Percent Growth,UACC-257; Log10 Concentration −5.0,34%
same,Percent Growth,UACC-257; Log10 Concentration −6.0,86%
same,Percent Growth,UACC-257; Log10 Concentration −7.0,92%
same,Percent Growth,UACC-257; Log10 Concentration −8.0,94%
same,GI50,HOP-92,1.58 µM
same,TGI,HOP-92,11.2 µM
same,Percent Growth,HOP-92; Log10 Concentration −4.0,−83%
same,Percent Growth,HOP-92; Log10 Concentration −5.0,4%
same,Percent Growth,HOP-92; Log10 Concentration −6.0,61%
same,Percent Growth,HOP-92; Log10 Concentration −7.0,76%
same,Percent Growth,HOP-92; Log10 Concentration −8.0,82%
same,GI50,OVCAR-3,2.42 µM
same,TGI,OVCAR-3,8.46 µM
same,Percent Growth,OVCAR-3; Log10 Concentration −4.0,−97%
same,Percent Growth,OVCAR-3; Log10 Concentration −5.0,−7%
same,Percent Growth,OVCAR-3; Log10 Concentration −6.0,85%
same,Percent Growth,OVCAR-3; Log10 Concentration −7.0,105%
same,Percent Growth,OVCAR-3; Log10 Concentration −8.0,108%
same,CC50,OVCAR-3; read-out: LC50,30.4 µM
same,TGI,NCI-H460,36.5 µM
same,Percent Growth,NCI-H460; Log10 Concentration −4.0,−66%
same,Percent Growth,NCI-H460; Log10 Concentration −5.0,85%
same,Percent Growth,NCI-H460; Log10 Concentration −6.0,100%
same,Percent Growth,NCI-H460; Log10 Concentration −7.0,100%
same,Percent Growth,NCI-H460; Log10 Concentration −8.0,102%
same,GI50,HL-60(TB),3.5 µM
same,TGI,HL-60(TB),11.3 µM
same,Percent Growth,HL-60(TB); Log10 Concentration −4.0,−44%
same,Percent Growth,HL-60(TB); Log10 Concentration −5.0,2%
same,Percent Growth,HL-60(TB); Log10 Concentration −6.0,107%
same,Percent Growth,HL-60(TB); Log10 Concentration −7.0,106%
same,Percent Growth,HL-60(TB); Log10 Concentration −8.0,90%
same,CC50,HL-60(TB); read-out: LC50,> 100 µM
same,GI50,MDA-MB-468,1.41 µM
same,TGI,MDA-MB-468,4.47 µM
same,Percent Growth,MDA-MB-468; Log10 Concentration −4.0,−68%
same,Percent Growth,MDA-MB-468; Log10 Concentration −5.0,−35%
same,Percent Growth,MDA-MB-468; Log10 Concentration −6.0,65%
same,Percent Growth,MDA-MB-468; Log10 Concentration −7.0,95%
same,Percent Growth,MDA-MB-468; Log10 Concentration −8.0,99%
same,GI50,HOP-62,17 µM
same,Percent Growth,HOP-62; Log10 Concentration −4.0,−77%
same,Percent Growth,HOP-62; Log10 Concentration −5.0,88%
same,Percent Growth,HOP-62; Log10 Concentration −6.0,91%
same,Percent Growth,HOP-62; Log10 Concentration −7.0,95%
same,Percent Growth,HOP-62; Log10 Concentration −8.0,86%
same,GI50,SK-MEL-5,15.8 µM
same,TGI,SK-MEL-5,30.4 µM
same,Percent Growth,SK-MEL-5; Log10 Concentration −4.0,−91%
same,Percent Growth,SK-MEL-5; Log10 Concentration −5.0,85%
same,Percent Growth,SK-MEL-5; Log10 Concentration −6.0,99%
same,Percent Growth,SK-MEL-5; Log10 Concentration −7.0,101%
same,Percent Growth,SK-MEL-5; Log10 Concentration −8.0,100%
same,GI50,NCI-H226,10.5 µM
same,TGI,NCI-H226,40.2 µM
same,Percent Growth,NCI-H226; Log10 Concentration −4.0,−3%
same,Percent Growth,NCI-H226; Log10 Concentration −5.0,52%
same,Percent Growth,NCI-H226; Log10 Concentration −6.0,93%
same,Percent Growth,NCI-H226; Log10 Concentration −7.0,96%
same,Percent Growth,NCI-H226; Log10 Concentration −8.0,99%
same,TGI,MOLT-4,13.3 µM
same,Percent Growth,MOLT-4; Log10 Concentration −4.0,−49%
same,Percent Growth,MOLT-4; Log10 Concentration −5.0,7%
same,Percent Growth,MOLT-4; Log10 Concentration −6.0,95%
same,Percent Growth,MOLT-4; Log10 Concentration −7.0,116%
same,Percent Growth,MOLT-4; Log10 Concentration −8.0,100%
same,GI50,786-0,3.95 µM
same,TGI,786-0,17.3 µM
same,Percent Growth,786-0; Log10 Concentration −4.0,−74%
same,Percent Growth,786-0; Log10 Concentration −5.0,23%
same,Percent Growth,786-0; Log10 Concentration −6.0,90%
same,Percent Growth,786-0; Log10 Concentration −7.0,89%
same,Percent Growth,786-0; Log10 Concentration −8.0,86%
same,GI50,K-562,2.79 µM
same,TGI,K-562,9.11 µM
same,Percent Growth,K-562; Log10 Concentration −4.0,−42%
same,Percent Growth,K-562; Log10 Concentration −5.0,−4%
same,Percent Growth,K-562; Log10 Concentration −6.0,93%
same,Percent Growth,K-562; Log10 Concentration −7.0,95%
same,Percent Growth,K-562; Log10 Concentration −8.0,100%
same,GI50,T-47D,2.38 µM
same,TGI,T-47D,12.6 µM
same,Percent Growth,T-47D; Log10 Concentration −4.0,−65%
same,Percent Growth,T-47D; Log10 Concentration −5.0,7%
same,Percent Growth,T-47D; Log10 Concentration −6.0,76%
same,Percent Growth,T-47D; Log10 Concentration −7.0,88%
same,Percent Growth,T-47D; Log10 Concentration −8.0,82%
same,GI50,U251,17.5 µM
same,TGI,U251,13.5 µM
same,Percent Growth,U251; Log10 Concentration −4.0,−84%
same,Percent Growth,U251; Log10 Concentration −5.0,93%
same,Percent Growth,U251; Log10 Concentration −6.0,94%
same,Percent Growth,U251; Log10 Concentration −7.0,97%
same,Percent Growth,U251; Log10 Concentration −8.0,98%
